Reference: patent publication US11524948B2, “Prodrugs of alpha-ketoglutarate, alpha-ketobutyrate, alpha-ketoisovalerate, and alpha-ketoisohexanoate, and uses thereof” (The Regents of the University of California, priority 2018, dated 2022)

Columns and labels:
mTORC1 = assay: Western blot of mTORC1 signaling in H9C2 rat cardiomyocytes; assay type: cell-based; details: H9C2 cells, western blot, FIGS. 2A, 2B, 2C, 2F
Experimental: (§1) H9C2 rat cardiomyocyte cells were grown in DMEM media (ATCC #30-2002) supplemented with 10% FBS. Stock solutions of MJX series compounds were prepared in DMSO, while the stock solution of α-ketobutyrate was prepared in dH2O. Cells were seeded in the afternoon at 70-80% confluency and the next morning treated with the indicated concentrations of compounds for the indicated times. Cells were then washed with ice-cold PBS and immediately lysed on ice with RIPA buffer. Lysates were clarified at 18,000 g at 4° C., the supernatants transferred to new tubes, mixed with […] of 5×SDS-PAGE loading buffer, and heated for 10 minutes at 70° C. Lysates were then separated by SDS-PAGE using 4-12% Bis-Tris gels (Life Technologies) and transferred to PVDF membranes (Millipore) for western blotting analysis. All antibodies were purchased from Cell Signaling.

Caenorhabditis elegans = assay: Lifespan of N2 wildtype C. elegans on NGM treatment plates containing compound; assay type: in vivo; parameters: mean lifespan: unit not given here; details: for % increase (mean lifespan): vs DMSO; for effect on C. elegans lifespan: FIGS. 1A-1C, result in words
Experimental: The anti-aging effects of MJX001-MJX005 were tested in the nematode Caenorhabditis elegans. Worms of the N2 wildtype strain of C. elegans were age-synchronized by performing either a timed egg lay or an egg preparation (mix <100 gravid worms in 70 μl M9 buffer, 25 μl bleach and 5 μl 10 N NaOH). Once the worms reached day 1 of adulthood, they were picked onto NGM treatment plates containing 1.5% dimethyl sulfoxide (DMSO; Sigma D8418), 49.5 μM 5-fluoro-2′-deoxyuridine (FUDR, Sigma F0503), and either […] (Sigma K401) or one of the MJX series test compounds. All plates were adjusted to pH 6.0 (i.e., the same pH as the control plates) if necessary by the addition of NaOH. Once dry, the plates were seeded with OP50 E. coli as the C. elegans food source. […] Worms were moved to new plates every 4 days. All worms were maintained in a single humidified, temperature-controlled incubator at 20° C. Lifespan curves were generated and statistical analyses performed.

AMPK signaling pathway = assay: Western blot of AMPK signaling in H9C2 rat cardiomyocytes; assay type: cell-based; details: H9C2 cells; for activation of AMPK signaling pathway (phosphorylation of AMPK targets ACC (S79) and ULK1 (S555)): western blot, FIGS. 2A, 2B, 2F
Experimental: as §1

C57BL/6 mice = assay: Hair regrowth in shaved C57BL/6 mice, topical application; assay type: in vivo, mouse
Experimental: The effects of the compounds on mouse models were evaluated. […] Mouse dorsal hair was shaved by trimmer on week 7 and MJX002 was dissolved in Transdermal Gel at 16 mM and applied on the dorsal skin every other day. Mice were monitored for the appearance of skin pigmentation, which signals the initiation of anagen. […] (FIG. 7)

H9C2 Cells = assay: [U-13C6]glucose tracing of metabolites in H9C2 cells (LC-MS); assay type: cell-based, rat; details: 24 h, FIG. 4
Experimental: To evaluate the metabolic pathways in use, H9C2 Cells were cultured with designated compounds and medium containing [U-^13C6]glucose for 24 h. Metabolites were extracted for LC-MS detection.

[1] = 1 mM, FIG. 1C experiment, DMSO control 14.8
[2] = 2 mM, FIG. 1C experiment, DMSO control 14.8
[3] = 4 mM, FIG. 1C experiment, DMSO control 14.8

| SMILES | mTORC1 signaling (phosphorylation of mTORC1 targets S6K (T389), 4E-BP1 (S65), ULK1 (S757)) (mTORC1) | mean lifespan (Caenorhabditis elegans; [1]) | % increase (mean lifespan) (Caenorhabditis elegans; 1 mM, FIG. 1C experiment) [%] | mean lifespan (Caenorhabditis elegans; [2]) | % increase (mean lifespan) (Caenorhabditis elegans; 2 mM, FIG. 1C experiment) [%] | mean lifespan (Caenorhabditis elegans; [3]) | % increase (mean lifespan) (Caenorhabditis elegans; 4 mM, FIG. 1C experiment) [%] | effect on C. elegans lifespan (Caenorhabditis elegans) | activation of AMPK signaling pathway (phosphorylation of AMPK targets ACC (S79) and ULK1 (S555)) (AMPK signaling pathway) | further results |
| --- | --- | --- | --- | --- | --- | --- | --- | --- | --- | --- |
| C/C=C(\OC(C)=O)C(=O)OCC [MJX001] | no significant effect | 12.9 | −12.9 | 11.5 | −22.4 | 11.1 | −24.8 | decreased C. elegans lifespan | activate the AMPK signaling pathway | – |
| CCOC(=O)C(CC)(OCC)OC(C)=O (stereo not drawn) [MJX002] | no significant effect | – | – | – | – | – | – | dose-dependent increases in lifespan | activate the AMPK signaling pathway | hair regrowth (C57BL/6 mice; 6 week old C57BL/6 mice, 16 mM in Transdermal Gel on dorsal skin every other day): stimulates hair regrowth; skin pigmentation and hair growth (C57BL/6 mice; C57BL/6 mice, 16 mM topical every other day, after 40 days, FIG. 7): accelerated pigmentation and hair growth; M2 citrate using [U-13C6]glucose as a tracer (H9C2 Cells): decreased M2 citrate; mean lifespan (Caenorhabditis elegans; 100 μM, FIG. 1A experiment, DMSO control 11.7): 11.9; % increase (mean lifespan) (Caenorhabditis elegans; 100 μM, FIG. 1A experiment): 1.9%; mean lifespan (Caenorhabditis elegans; 300 μM, FIG. 1A experiment, DMSO control 11.7): 13.2; % increase (mean lifespan) (Caenorhabditis elegans; 300 μM, FIG. 1A experiment): 13.0%; mean lifespan (Caenorhabditis elegans; 1 mM, FIG. 1A experiment, DMSO control 11.7): 12.2; % increase (mean lifespan) (Caenorhabditis elegans; 1 mM, FIG. 1A experiment): 4.2%; mean lifespan (Caenorhabditis elegans; 4 mM, FIG. 1A experiment, DMSO control 11.7): 16.4; % increase (mean lifespan) (Caenorhabditis elegans; 4 mM, FIG. 1A experiment): 40.0% |
| C/C=C1\OC(C)OC1=O (stereo not drawn) [MJX003] | no significant effect | 14.8 | −0.2 | 12.5 | −15.3 | 12.9 | −12.7 | decreased C. elegans lifespan | activate the AMPK signaling pathway | phosphorylation of T172 in AMPK (AMPK signaling pathway; FIG. 2A): Increased phosphorylation |
